The test system of one test is Mino cells. Put plainly: Antiproliferative effect, MTS cell viability assay, Mino cells. Format: cell-based. To be noted: Homo sapiens, Mino mantle cell lymphoma cells, read-out: IC50 (anti-proliferation) Mino cells. The method, boiled down:
(§1)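 MTS read-out, A490 of formazan from metabolically active cells; compound 0–10 μM (0, 0.001, 0.01, 0.1, 1, 10 μM), 72 h exposure.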
(In general: Formazan colour is commonly taken as a measure of viable cells.)

The test system of a further test is JeKo-1 cells. Description: Antiproliferative effect, MTS cell viability assay, JeKo-1 cells. Format: cell-based. To be noted: Homo sapiens; JeKo-1 mantle cell lymphoma cells; read-out: IC50 (anti-proliferation) JeKO-1 cells. In a few lines:
as §1

In test [1] the target is T1, BTK (Homo sapiens, UniProt Q06187). Put plainly: BTK degradation, DC50 and Dmax of Table 1 (cell line not given). Format: cell-based. Further details: endogenous in cells. The conditions noted are these: for DC50: concentration giving 50% reduction of BTK expression level.
T1 sequence (Q06187 whole entry): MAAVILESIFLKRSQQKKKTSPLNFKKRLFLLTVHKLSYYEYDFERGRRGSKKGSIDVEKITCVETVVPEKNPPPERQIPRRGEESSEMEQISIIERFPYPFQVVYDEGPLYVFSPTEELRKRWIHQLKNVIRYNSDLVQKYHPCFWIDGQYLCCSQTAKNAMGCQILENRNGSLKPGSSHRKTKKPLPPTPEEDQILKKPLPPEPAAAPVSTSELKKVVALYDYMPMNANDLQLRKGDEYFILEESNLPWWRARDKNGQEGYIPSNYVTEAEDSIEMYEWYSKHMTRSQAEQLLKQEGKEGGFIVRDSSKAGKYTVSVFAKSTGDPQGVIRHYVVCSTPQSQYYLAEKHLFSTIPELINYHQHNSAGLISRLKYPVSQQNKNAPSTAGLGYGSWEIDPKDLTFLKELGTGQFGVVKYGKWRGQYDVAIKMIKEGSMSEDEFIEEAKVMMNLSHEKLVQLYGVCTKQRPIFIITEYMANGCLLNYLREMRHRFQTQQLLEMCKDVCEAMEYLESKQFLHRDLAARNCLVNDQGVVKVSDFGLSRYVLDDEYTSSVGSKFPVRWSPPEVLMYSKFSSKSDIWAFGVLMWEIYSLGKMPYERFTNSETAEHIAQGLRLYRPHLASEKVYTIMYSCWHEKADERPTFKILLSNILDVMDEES
Test [2] has as its target T1, BTK. Description: Degradation of BTK protein in Namalwa cells (Western blot; DC50, Dmax). To be noted: for degradation of BTK protein / degradation of BTK protein at 10^−6 M: Namalwa B lymphocyte cells, Western blot; for degradation of BTK protein: various concentrations, 24 hours. (In general: A western blot detects proteins with antibodies after separation by electrophoresis.)

Test [3] deals with T1, BTK. Description: Degradation of BTK protein in JeKo-1 cells (Western blot; DC50, Dmax). The conditions noted are these: JeKo-1 mantle cell lymphoma cells, various concentrations, 24 hours.
Protocol: Namalwa, JeKo-1, or Mino cells were plated in 24-well plates at a density of 10^5 cells/well. Media containing various drug concentrations were added on the day following plating (day 0) and allowed to incubate for 24 hours for Western blot. Media with the tested compound was changed every other day. […] Media were removed and dishes were washed with 1×DPBS. Lysates were made by adding 150 μL of complete lysis solution and scraping cells into a 1.5 mL microcentrifuge tube. Lysates were placed on a rotisserie at 4° C. for 30 min and then spun at 4° C. at 12000 rcf for 10 min. Supernatants were assayed for protein content, snap-frozen, and stored a −80° C. if not run immediately. Then 50 μg of protein was subjected to Western blot protocol. […] They were then imaged on a LICOR infrared scanner.

Structures are written as SMILES. Like-named read-outs stand apart in the source and are kept apart here. Some results are limits rather than exact numbers.

Results on 13 molecules are retold here after patent publication US12139492B2 (Endotarget Inc., priority 2021, dated 2024).

Take `Nc1ncnc2c1c(-c1ccc(Oc3ccccc3)cc1)nn2C1CCN(CC2CCN(C(=O)N3CCN(c4ccc5c(c4)CN(C4CCC(=O)NC4=O)C5=O)CC3)CC2)CC1` (stereo not shown) [Compound 36, 3-(5-(4-(4-((4-(4-amino-3-(4-phenoxyphenyl)-1H-pyrazolo(3,4-d)pyrimidin-1-yl)piperidin-1-yl)methyl)piperidine-1-carbonyl)piperazin-1-yl)-1-oxoisoindolin-2-yl)piperidine-2,6-dione]: the IC50 in the test on Mino cells and in the test with JeKo-1 cells was below 1 µM each time. For the same molecule, the greatest degradation seen (Dmax) (commonly the greatest extent of degradation seen) on BTK [1] was above 90%. For the same molecule, at BTK [1], the half-maximal degradation concentration (DC50) (commonly the concentration giving 50% degradation) is below 0.01 µM. The “degradation of BTK protein” value on BTK [2] and at BTK [3] was “dose-dependent degradation” each time.

Take `Nc1ncnc2c1c(-c1ccc(Oc3ccccc3)cc1)nn2[C@@H]1CCCN(C(=O)N2CCC(CCN3CCN(c4ccc5c(c4)C(=O)N(C4CCC(=O)NC4=O)C5=O)CC3)CC2)C1` (stereo partly drawn) [Compound 63, 5-(4-(2-(1-((R)-3-(4-amino-3-(4-phenoxyphenyl)-1H-pyrazolo(3,4-d)pyrimidin-1-yl)piperidine-1-carbonyl)piperidin-4-yl)ethyl)piperazin-1-yl)-2-(2,6-dioxopiperidin-3-yl)isoindoline-1,3-dione]: in the test with Mino cells (MINO), the IC50 lay in the range of 1 to 10 µM. Besides, the IC50 with JeKo-1 cells was 1 to 10 µM. Besides, at BTK [1], the Dmax is above 90% and the half-maximal degradation concentration (DC50) is below 0.01 µM. In addition, on BTK [2], the “degradation of BTK protein at 10^−6 M” value was “degradation” and the “degradation of BTK protein” value is reported as “dose-dependent degradation”.

Regarding `Nc1ncnc2c1c(-c1ccc(Oc3ccccc3)cc1)nn2C1CCN(C(=O)N2CCN(c3ccc4c(c3)C(=O)N(C3CCC(=O)NC3=O)C4=O)CC2)CC1` (stereo not shown) [Compound 75, 5-(4-(4-(4-amino-3-(4-phenoxyphenyl)-1H-pyrazolo(3,4-d)pyrimidin-1-yl)piperidine-1-carbonyl)piperazin-1-yl)-2-(2,6-dioxopiperidin-3-yl)isoindoline-1,3-dione], the IC50 in the test on Mino cells (MINO) and in the test on JeKo-1 cells was above 10 µM throughout. Also, the Dmax at BTK [1] is above 50%. The DC50 at BTK [1] was above 0.05 µM. Also, on BTK [2], the “degradation of BTK protein at 10^−6 M” value is reported as “degradation”.

As for `Nc1ncnc2c1c(-c1ccc(Oc3ccccc3)cc1)nn2C1CCN(C(=O)N2CCC(C3CCN(c4ccc5c(c4)C(=O)N(C4CCC(=O)NC4=O)C5=O)CC3)CC2)CC1` (stereo not shown) [Compound 79, 5-(1′-(4-(4-amino-3-(4-phenoxyphenyl)-1H-pyrazolo(3,4-d)pyrimidin-1-yl)piperidine-1-carbonyl)-(4,4′-bipiperidin)-1-yl)-2-(2,6-dioxopiperidin-3-yl)isoindoline-1,3-dione], the IC50 in the test on Mino cells (MINO) was above 10 µM. In addition, the IC50 in the test with JeKo-1 cells was above 10 µM. In addition, on BTK [1], the maximal degradation (Dmax) is above 75% and the DC50 is above 0.05 µM. In addition, the “degradation of BTK protein at 10^−6 M” value on BTK [2] is reported as “degradation”.

On to `Nc1ncnc2c1c(-c1ccc(Oc3ccccc3)cc1)nn2C1CCN(C(=O)N2CCC(C3CCN(c4ccc5c(c4)CN(C4CCC(=O)NC4=O)C5=O)CC3)CC2)CC1` (stereo not shown) [Compound 80, 3-(5-(1′-(4-(4-amino-3-(4-phenoxyphenyl)-1H-pyrazolo[3,4-d]pyrimidin-1-yl)piperidine-1-carbonyl)-[4,4′-bipiperidin]-1-yl)-1-oxoisoindolin-2-yl)piperidine-2,6-dione], for which the IC50 in the test on Mino cells (MINO) is above 10 µM. In addition, the IC50 with JeKo-1 cells is above 10 µM. Besides, on BTK [1], the Dmax is above 75% and the half-maximal degradation concentration (DC50) is above 0.05 µM. Moreover, at BTK [2], the “degradation of BTK protein at 10^−6 M” value is “degradation”.

On to `Nc1ncnc2c1c(-c1ccc(Oc3ccccc3)cc1)nn2C1CCN(C(=O)N2CCC(N3CCN(c4ccc5c(c4)C(=O)N(C4CCC(=O)NC4=O)C5=O)CC3)CC2)CC1` (stereo not shown) [Compound 81, 5-(4-(1-(4-(4-amino-3-(4-phenoxyphenyl)-1H-pyrazolo(3,4-d)pyrimidin-1-yl)piperidine-1-carbonyl)piperidin-4-yl)piperazin-1-yl)-2-(2,6-dioxopiperidin-3-yl)isoindoline-1,3-dione], for which the IC50 in the test on Mino cells (MINO) was above 10 µM. For the same molecule, in the test on JeKo-1 cells, the IC50 is above 10 µM. At BTK [1], this molecule returned a maximal degradation (Dmax) above 75% and a DC50 above 0.05 µM. The “degradation of BTK protein” value on BTK [2] is on record as “dose-dependent degradation”.

Regarding `Nc1ncnc2c1c(-c1ccc(Oc3ccccc3)cc1)nn2C1CCN(C(=O)N2CCC(CN3CCN(c4ccc5c(c4)C(=O)N(C4CCC(=O)NC4=O)C5=O)CC3)CC2)CC1` (stereo not shown) [Compound 85, 5-(4-((1-(4-(4-amino-3-(4-phenoxyphenyl)-1H-pyrazolo(3,4-d)pyrimidin-1-yl)piperidine-1-carbonyl)piperidin-4-yl)methyl)piperazin-1-yl)-2-(2,6-dioxopiperidin-3-yl)isoindoline-1,3-dione], in the test on Mino cells (MINO), the IC50 was below 1 µM. In addition, in the test on JeKo-1 cells, the IC50 is below 1 µM. Moreover, on BTK [1], the maximal degradation (Dmax) is above 90% and the 50% degradation concentration (DC50) is below 0.01 µM. Besides, on BTK [2], the “degradation of BTK protein at 10^−6 M” value is “degradation” and the “degradation of BTK protein” value is recorded as “dose-dependent degradation”.

Take `Nc1ncnc2c1c(-c1ccc(Oc3ccccc3)cc1)nn2C1CCN(C(=O)N2CCC(CCN3CCN(c4ccc5c(c4)C(=O)N(C4CCC(=O)NC4=O)C5=O)CC3)CC2)CC1` (stereo not shown) [Compound 93, 5-(4-(2-(1-(4-(4-amino-3-(4-phenoxyphenyl)-1H-pyrazolo(3,4-d)pyrimidin-1-yl)piperidine-1-carbonyl)piperidin-4-yl)ethyl)piperazin-1-yl)-2-(2,6-dioxopiperidin-3-yl)isoindoline-1,3-dione]: in the test with Mino cells (MINO), the IC50 was 1 to 10 µM. In addition, the IC50 in the test with JeKo-1 cells fell in the range of 1 to 10 µM. Besides, at BTK [1], the Dmax is above 90% and the DC50 was 0.01 to 0.05 µM. For the same molecule, at BTK [2], the “degradation of BTK protein at 10^−6 M” value is recorded as “degradation” and the “degradation of BTK protein” value is “dose-dependent degradation”.

On to `Nc1ncnc2c1c(-c1ccc(Oc3ccccc3)cc1)nn2[C@@H]1CCCN(C2CCN(C(=O)N3CCN(c4ccc5c(c4)C(=O)N(C4CCC(=O)NC4=O)C5=O)CC3)CC2)C1` (stereo partly drawn) [Compound 159, 5-(4-((R)-3-(4-amino-3-(4-phenoxyphenyl)-1H-pyrazolo(3,4-d)pyrimidin-1-yl)-(1,4′-bipiperidine)-1′-carbonyl)piperazin-1-yl)-2-(2,6-dioxopiperidin-3-yl)isoindoline-1,3-dione], for which the results for the IC50 in the test with Mino cells (MINO) and in the test on JeKo-1 cells were 1 to 10 µM and above 10 µM, respectively. At BTK [1], this molecule gave a Dmax above 50%. Moreover, the half-maximal degradation concentration (DC50) on BTK [1] is above 0.05 µM. The “degradation of BTK protein at 10^−6 M” value at BTK [2] was “degradation”.

Turning to `Nc1ncnc2c1c(-c1ccc(Oc3ccccc3)cc1)nn2[C@@H]1CCCN(C2CCN(C(=O)N3CCC(C4CCN(c5ccc6c(c5)C(=O)N(C5CCC(=O)NC5=O)C6=O)CC4)CC3)CC2)C1` (stereo partly drawn) [Compound 163, 5-(1′-((R)-3-(4-amino-3-(4-phenoxyphenyl)-1H-pyrazolo(3,4-d)pyrimidin-1-yl)-(1,4′-bipiperidine)-1′-carbonyl)-(4,4′-bipiperidin)-1-yl)-2-(2,6-dioxopiperidin-3-yl)isoindoline-1,3-dione], the IC50 in the test with Mino cells (MINO) lay within 1 to 10 µM. Besides, the IC50 with JeKo-1 cells was above 10 µM. Also, at BTK [1], the maximal degradation (Dmax) is above 75% and the DC50 is above 0.05 µM. On BTK [2], the “degradation of BTK protein at 10^−6 M” value is listed as “degradation” and the “degradation of BTK protein” value was “dose-dependent degradation”.

As to `Nc1ncnc2c1c(-c1ccc(Oc3ccccc3)cc1)nn2[C@@H]1CCCN(C2CCN(C(=O)N3CCC(CN4CCN(c5ccc6c(c5)C(=O)N(C5CCC(=O)NC5=O)C6=O)CC4)CC3)CC2)C1` (stereo partly drawn) [Compound 169, 5-(4-((1-((R)-3-(4-amino-3-(4-phenoxyphenyl)-1H-pyrazolo(3,4-d)pyrimidin-1-yl)-(1,4′-bipiperidine)-1′-carbonyl)piperidin-4-yl)methyl)piperazin-1-yl)-2-(2,6-dioxopiperidin-3-yl)isoindoline-1,3-dione], the IC50 in the test on Mino cells (MINO) fell in the range of 1 to 10 µM. The IC50 with JeKo-1 cells was below 1 µM. Moreover, at BTK [1], the maximal degradation (Dmax) is above 90% and the DC50 was in the range of 0.01 to 0.05 µM. Moreover, at BTK [2], the “degradation of BTK protein at 10^−6 M” value is recorded as “degradation” and the “degradation of BTK protein” value is listed as “dose-dependent degradation”.

As to `Nc1ncnc2c1c(-c1ccc(Oc3ccccc3)cc1)nn2[C@@H]1CCCN(C2CCN(C(=O)N3CCC(CCN4CCN(c5ccc6c(c5)C(=O)N(C5CCC(=O)NC5=O)C6=O)CC4)CC3)CC2)C1` (stereo partly drawn) [Compound 181, 5-(4-(2-(1-((R)-3-(4-amino-3-(4-phenoxyphenyl)-1H-pyrazolo(3,4-d)pyrimidin-1-yl)-(1,4′-bipiperidine)-1′-carbonyl)piperidin-4-yl)ethyl)piperazin-1-yl)-2-(2,6-dioxopiperidin-3-yl)isoindoline-1,3-dione], the IC50 in the test on Mino cells (MINO) fell in the range of 1 to 10 µM. For the same molecule, in the test with JeKo-1 cells, the IC50 fell in the range of 1 to 10 µM. For the same molecule, on BTK [1], the greatest degradation seen (Dmax) is above 75% and the half-maximal degradation concentration (DC50) was 0.01 to 0.05 µM. Moreover, at BTK [2], the “degradation of BTK protein at 10^−6 M” value is reported as “degradation” and the “degradation of BTK protein” value is “dose-dependent degradation”.

Regarding `Nc1ncnc2c1c(-c1ccc(Oc3ccccc3)cc1)nn2C1CCN(C2CCN(CC3CN(c4ccc5c(c4)C(=O)N(C4CCC(=O)NC4=O)C5=O)C3)C2)CC1` (stereo not shown) [Compound 425, 5-(3-((3-(4-(4-amino-3-(4-phenoxyphenyl)-1H-pyrazolo(3,4-d)pyrimidin-1-yl)piperidin-1-yl)pyrrolidin-1-yl)methyl)azetidin-1-yl)-2-(2,6-dioxopiperidin-3-yl)isoindoline-1,3-dione], the IC50 with Mino cells (MINO) and in the test on JeKo-1 cells was 1 to 10 µM throughout. Further, the “degradation of BTK protein” value on BTK [2] and at BTK [3] was “dose-dependent degradation” throughout. Moreover, on BTK [2] (read-out: DC50 (BTK degradation), concentration giving 50% reduction of BTK expression level, cell line not given), the 50% degradation concentration (DC50) fell in the range of 0.01 to 0.05 µM. Further, the Dmax at BTK [2] (read-out: Dmax (BTK degradation)) is above 90%.
